In patent publication US20250215030A1, “STAT MODULATORS AND USES THEREOF” (Recludix Pharma, Inc., priority 2022, published 2025):

Experiments:
[1] = molecular target: T1, pSTAT6 (pY641-STAT6) (Homo sapiens, UniProt P42226); test: MSD-pSTAT-PBMC Assay (pSTAT6, IL-4 stimulated); assay type: cell-based; details: compound 3 hrs, then 1 ng/mL IL-4 for 10 min
T1 construct: host or cells: cryopreserved PBMC
T1 sequence (P42226 1-847): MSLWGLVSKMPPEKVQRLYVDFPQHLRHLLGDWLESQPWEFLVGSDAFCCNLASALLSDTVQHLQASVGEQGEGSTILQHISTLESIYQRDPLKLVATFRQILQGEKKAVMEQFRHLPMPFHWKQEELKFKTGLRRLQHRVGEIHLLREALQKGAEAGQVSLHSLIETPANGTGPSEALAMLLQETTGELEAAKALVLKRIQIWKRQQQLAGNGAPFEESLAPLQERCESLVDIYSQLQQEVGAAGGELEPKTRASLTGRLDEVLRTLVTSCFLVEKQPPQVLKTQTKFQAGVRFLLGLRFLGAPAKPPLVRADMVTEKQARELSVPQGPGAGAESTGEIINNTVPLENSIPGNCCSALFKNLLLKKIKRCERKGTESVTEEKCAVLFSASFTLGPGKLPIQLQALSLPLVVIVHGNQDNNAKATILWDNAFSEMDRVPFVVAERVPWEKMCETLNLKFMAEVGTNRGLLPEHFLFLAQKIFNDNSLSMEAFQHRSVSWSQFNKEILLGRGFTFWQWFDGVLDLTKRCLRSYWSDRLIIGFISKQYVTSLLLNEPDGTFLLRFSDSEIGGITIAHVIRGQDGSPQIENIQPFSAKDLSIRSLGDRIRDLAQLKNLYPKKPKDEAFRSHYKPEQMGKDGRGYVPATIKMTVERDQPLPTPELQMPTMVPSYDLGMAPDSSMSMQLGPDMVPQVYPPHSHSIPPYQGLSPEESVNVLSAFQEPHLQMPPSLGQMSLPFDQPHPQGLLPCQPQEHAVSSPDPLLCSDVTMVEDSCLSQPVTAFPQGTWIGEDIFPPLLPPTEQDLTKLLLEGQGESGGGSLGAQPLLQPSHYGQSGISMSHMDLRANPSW
Description: Cryopreserved Peripheral Blood Mononuclear Cells (PBMC) are from AllCells. Recombinant Human IL-4 and IL-6 are from Peprotech. Mouse monoclonal anti-STAT3 antibody, rabbit monoclonal anti-pY705-STAT3 antibody, rabbit monoclonal Anti-pY641-STAT6 antibody, and lysis buffer are from Cell Signaling Technology (CST). Mouse monoclonal anti-STAT6 antibody is from BioLegend. Assay plates, blocker, and anti-rabbit secondary antibody are from Meso Scale Discovery (MSD).
Cryopreserved PBMCs were thawed out and allowed to recover overnight in IMDM+10% heat-inactivated FBS prior to plating 50,000 (STAT3) or 25,000 (STAT6) cells per well in 96-well U-bottom tissue culture plates. Cells were treated with compound for 3 hrs, then stimulated with 10 ng/mL IL-6 (STAT3) or 1 ng/mL IL-4 (STAT6) for 10 min. Cells were then spun down and washed with ice-cold PBS prior to lysing the cell pellet with 1× lysis buffer (CST) with 1× HALT protease and phosphatase inhibitor cocktail (Thermo). Lysates were transferred to and incubated overnight at 4° C. with shaking in QuickPlex 96-well high bind assay plates (MSD) pre-coated overnight with 30 μL per well of 0.6 μg/mL mouse monoclonal anti-STAT3 antibody (STAT3) or 2 μg/mL mouse monoclonal anti-STAT6 antibody (STAT6) in 1×PBS, and pre-blocked for 1 hour with 3% Blocker-A (MSD). Captured protein in the assay plates were then washed and probed with 25 μL per well of 0.25 μg/ml rabbit monoclonal anti-pY705-STAT3 antibody (STAT3) or 0.18 μg/ml rabbit monoclonal Anti-pY641-STAT6 antibody (STAT6) in 1% Blocker-A for 1 hour at room temperature with shaking, then washed and probed with 25 ul per well of 1 ug/mi Sulfo-TAG Labeled Goat Anti-Rabbit Antibody (MSD) in 1% Blocker-A for 1 hour at room temperature with shaking. Assay plates were then washed and 150 μL of 1× Read Buffer-T (MSD) was added to each well prior to reading on an SQ120 MSD Plate Reader. Assay signal from each sample was subtracted by the signal from unstimulated control wells and normalized to DMSO control wells. IC50 values were calculated using Graph Pad Prism Dose-Response Nonlinear Regression with variable slope. For both pSTAT3 and pSTAT6 A=≤100 nM; B=>100-1000 nM; C=>1000-3000 nM; and D=>3 μM.

[2] = molecular target: T2, pSTAT3 (pY705-STAT3) (Homo sapiens, UniProt P40763); test: MSD-pSTAT-PBMC Assay (pSTAT3, IL-6 stimulated); assay type: cell-based; details: PBMC, compound 3 hrs, then 10 ng/mL IL-6 for 10 min; MSD pY705-STAT3; read-out: pSTAT3
T2 construct: host or cells: cryopreserved PBMC
Method in brief: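 Phospho-STAT levels captured on anti-STAT3 or anti-STAT6 plates and detected with anti-pY705 or anti-pY641 antibodies (MSD read-out). Cryopreserved human PBMCs received compound for 3 h before a 10 min pulse of IL-6 (10 ng/mL, STAT3) or IL-4 (1 ng/mL, STAT6). IC50 fitted after unstimulated-background subtraction and DMSO normalization.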

T2 sequence (P40763 whole entry): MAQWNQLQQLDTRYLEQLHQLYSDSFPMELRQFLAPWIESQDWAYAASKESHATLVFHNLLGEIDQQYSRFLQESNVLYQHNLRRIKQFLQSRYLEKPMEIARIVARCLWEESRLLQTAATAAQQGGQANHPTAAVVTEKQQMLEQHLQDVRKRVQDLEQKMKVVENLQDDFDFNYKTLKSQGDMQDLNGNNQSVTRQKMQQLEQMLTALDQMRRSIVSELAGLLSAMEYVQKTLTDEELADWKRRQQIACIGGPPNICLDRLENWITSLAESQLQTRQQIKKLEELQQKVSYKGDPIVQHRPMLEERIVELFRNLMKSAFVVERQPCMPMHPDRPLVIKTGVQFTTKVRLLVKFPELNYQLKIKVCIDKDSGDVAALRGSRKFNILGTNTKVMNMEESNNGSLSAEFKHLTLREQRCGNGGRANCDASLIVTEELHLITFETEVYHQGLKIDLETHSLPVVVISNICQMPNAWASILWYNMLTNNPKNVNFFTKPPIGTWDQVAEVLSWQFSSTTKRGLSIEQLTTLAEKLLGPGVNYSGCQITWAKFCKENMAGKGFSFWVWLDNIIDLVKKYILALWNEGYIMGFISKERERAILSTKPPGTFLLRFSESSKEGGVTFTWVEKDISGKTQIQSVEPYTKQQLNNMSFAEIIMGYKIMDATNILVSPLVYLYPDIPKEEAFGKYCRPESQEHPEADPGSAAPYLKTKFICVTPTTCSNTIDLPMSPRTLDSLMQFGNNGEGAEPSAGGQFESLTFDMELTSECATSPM

Compound | IC50 [1] | IC50 [2]
CC(C)OC(=O)[C@H](C)NP(=O)(Cc1ccc2sc(C(=O)N[C@H]3C[C@@H]4C[C@@H]4C[C@H]4CC[C@@H](C(=O)N5CC(C(=O)N6CCOCC6)C5)N4C3=O)cc2c1)Oc1ccccc1 (stereo partly drawn) [Compound 154, isopropyl (((2-(((3S,6S,7aS, 8aR,9aR)-3-(3-(morpholine-4-carbonyl)azetidine-1-carbonyl)-5-oxodecahydro-1H-cyclopropa[d]pyrrolo[1,2-a]azocin-6-yl)carbamoyl)benzo[b]thiophen-5-yl)methyl) (phenoxy) (phosphoryl)-L-alaninate] | > 3 µM | 0.1 to 1 µM
CC(C)OC(=O)OCOP(=O)(Cc1ccc2sc(C(=O)N[C@H]3C[C@@H]4C[C@@H]4C[C@H]4CC[C@@H](C(=O)N5CC(n6ccnc6)C5)N4C3=O)cc2c1)OCOC(=O)OC(C)C [Compound 157, ((((2-(((3S,6S,7aS, 8aR,9aR)-3-(3-(1H-imidazol-1-yl)azetidine-1-carbonyl)-5-oxodecahydro-1H-cyclopropa[d]pyrrolo[1,2-a]azocin-6-yl)carbamoyl)benzo[b]thiophen-5-yl)methyl)phosphoryl)bis(oxy)) bis(methylene) diisopropyl bis(carbonate)] | > 3 µM | < 0.1 µM
CCCC(=O)SCCOP(=O)(Cc1ccc2sc(C(=O)N[C@H]3C[C@@H]4C[C@@H]4C[C@H]4CC[C@@H](C(=O)N5CC(n6ccnc6)C5)N4C3=O)cc2c1)OCCSC(=O)CCC [Compound 158, S,S′-(((((2-(((3S,6S,7aS, 8aR,9aR)-3-(3-(1H-imidazol-1-yl)azetidine-1-carbonyl)-5-oxodecahydro-1H-cyclopropa[d]pyrrolo[1,2-a]azocin-6-yl)carbamoyl)benzo[b]thiophen-5-yl)methyl)phosphoryl)bis(oxy))bis(ethane-2,1-diyl)) dibutanethioate] | > 3 µM | 0.1 to 1 µM
O=C(OCOP(=O)(OCOC(=O)OC1CCOCC1)C(F)(F)c1ccc2sc(C(=O)N[C@H]3C[C@@H]4C[C@@H]4C[C@H]4CC[C@@H](C(=O)N5CC(C(=O)N6CCOCC6)C5)N4C3=O)cc2c1)OC1CCOCC1 [Compound 162, (((difluoro(2-(((3S,6S,7aS, 8aR,9aR)-3-(3-(morpholine-4-carbonyl)azetidine-1-carbonyl)-5-oxodecahydro-1H-cyclopropa [d]pyrrolo[1,2-a]azocin-6-yl)carbamoyl)benzo[b]thiophen-5-yl)methyl)phosphoryl)bis(oxy)) bis(methylene) bis(tetrahydro-2H-pyran-4-yl) bis(carbonate)] | > 3 µM | 0.1 to 1 µM
CC(C)OC(=O)[C@H](Cc1ccccc1)NP(=O)(Oc1ccccc1)C(F)(F)c1ccc2sc(C(=O)N[C@H]3C[C@@H]4C[C@@H]4C[C@H]4CC[C@@H](C(=O)N5CC(C(=O)N6CCOCC6)C5)N4C3=O)cc2c1 (stereo partly drawn) [Compound 165, isopropyl ((difluoro(2-(((3S,6S,7aS, 8aR,9aR)-3-(3-(morpholine-4-carbonyl)azetidine-1-carbonyl)-5-oxodecahydro-1H-cyclopropa[d]pyrrolo[1,2-a]azocin-6-yl)carbamoyl)benzo[b]thiophen-5-yl)methyl) (phenoxy)phosphoryl)-L-phenylalaninate] | > 3 µM | 1 to 3 µM

Next, values leading:

IC50 [1] | IC50 [2] | Compound
1 to 3 µM | < 0.1 µM | CC(C)(C)C(=O)OCOP(=O)(Cc1ccc2sc(C(=O)N[C@H]3C[C@H]4C[C@H]4C[C@H]4CC[C@@H](C(=O)N5CC(c6ccccn6)C5)N4C3=O)cc2c1)OCOC(=O)C(C)(C)C [Compound 155, ((((2-(((3S,6S,7aR, 8aS,9aR)-5-oxo-3-(3-(pyridin-2-yl)azetidine-1-carbonyl)decahydro-1H-cyclopropa[d]pyrrolo[1,2-a]azocin-6-yl)carbamoyl)benzo[b]thiophen-5-yl)methyl)phosphoryl)bis(oxy)) bis(methylene) bis(2,2-dimethyl-pronanoate)]
> 3 µM | < 0.1 µM | CC(C)(C)C(=O)OCOP(=O)(Cc1ccc2sc(C(=O)N[C@H]3C[C@@H]4C[C@@H]4C[C@H]4CC[C@@H](C(=O)N5CC(n6ccnc6)C5)N4C3=O)cc2c1)OCOC(=O)C(C)(C)C [Compound 156, ((((2-(((3S,6S,7aS, 8aR,9aR)-3-(3-(1H-imidazol-1-yl)azetidine-1-carbonyl)-5-oxodecahydro-1H-cyclopropa[d]pyrrolo[1,2-a]azocin-6-yl)carbamoyl)benzo[b]thiophen-5-yl)methyl)phosphoryl)bis(oxy)) bis(methylene) bis(2,2-dimethyl-propanoate)]
> 3 µM | < 0.1 µM | COCC(C)(C)OC(=O)OCOP(=O)(OCOC(=O)OC(C)(C)COC)C(F)(F)c1ccc2sc(C(=O)N[C@H]3C[C@@H]4C[C@@H]4C[C@H]4CC[C@@H](C(=O)N5CC(C(=O)N6CCOCC6)C5)N4C3=O)cc2c1 [Compound 161, (((difluoro(2-(((3S,6S,7aS, 8aR,9aR)-3-(3-(morpholine-4-carbonyl)azetidine-1-carbonyl)-5-oxodecahydro-1H-cyclopropa [d]pyrrolo[1,2-a]azocin-6-yl)carbamoyl)benzo[b]thiophen-5-yl)methyl)phosphoryl)bis(oxy)) bis(methylene) bis(1-methoxy-2-methylpropan-2-yl) bis(carbonate)]
> 3 µM | < 0.1 µM | O=C(OCOP(=O)(OCOC(=O)OC1CCOCC1)C(F)(F)c1ccc2sc(C(=O)N[C@H]3C[C@H]4C[C@H]4C[C@H]4CC[C@@H](C(=O)N5CC(c6cccnc6)C5)N4C3=O)cc2c1)OC1CCOCC1 [Compound 166, (((difluoro(2-(((3S,6S,7aR, 8aS,9aR)-5-oxo-3-(3-(pyridin-3-yl)azetidine-1-carbonyl)decahydro-1H-cyclopropa[d]pyrrolo[1,2-a]azocin-6-yl)carbamoyl)benzo[b]thiophen-5-yl)methyl)phosphoryl)bis(oxy)) bis(methylene) bis(tetrahydro-2H-pyran-4-yl) bis(carbonate)]
> 3 µM | < 0.1 µM | COCC(C)(C)OC(=O)OCOP(=O)(OCOC(=O)OC(C)(C)COC)C(F)(F)c1ccc2sc(C(=O)N[C@H]3C[C@H]4C[C@H]4C[C@H]4CC[C@@H](C(=O)N5CC(c6cccnc6)C5)N4C3=O)cc2c1 [Compound 168, (((difluoro(2-(((3S,6S,7aR, 8aS,9aR)-5-oxo-3-(3-(pyridin-3-yl)azetidine-1-carbonyl)decahydro-1H-cyclopropa[d]pyrrolo[1,2-a]azocin-6-yl)carbamoyl)benzo[b]thiophen-5-yl)methyl)phosphoryl)bis(oxy)) bis(methylene) bis(1-methoxy-2-methylpropan-2-yl) bis(carbonate)]
